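Cultured in 96-well plates, cells were exposed to test compound for 48 hours across five concentrations. TGI marks complete inhibition of growth.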
System: SR leukemia
Assay: growth of human tumour cells (NCI), 48 h

Row | SMILES | TGI
1 | Cc1ccc(-c2csc(=Nc3ccccc3)n2NC(=O)c2ccncc2)cc1 | > 100 µM

System: SW-620 colon
Assay: growth of human tumour cells (NCI), 48 h

Row | SMILES | TGI
2 | O=C(/C=C/c1ccccc1)C[C@@H](O)C[C@@H]1CC=CC(=O)O1 | 5.53 µM
3 | Cc1ccc(/C=C/C(=O)c2cccc3ccccc23)cc1 | 26.2 µM
4 | N#C/C(=C1/Sc2c(nc[nH]c2=O)N1c1ccccc1)c1nc2ccccc2[nH]1 | > 100 µM
5 | C=CC[C@H](C[C@H](C[C@H](C[C@H](C[C@H](C[C@H](C[C@H](C[C@H](C[C@H](C[C@H](CCCCC)OC)OC)OC)OC)OC)OC)OC)OC)OC)OC | > 100 µM
6 | NC1(c2cc3ccccc3s2)CCCC1 | > 100 µM
7 | C/C(CCn1[nH]c(=O)ccc1=O)=N\NC(=O)C(=O)NN | > 100 µM
8 | Cc1ccc(-c2csc(=Nc3ccccc3)n2NC(=O)c2ccncc2)cc1 | > 100 µM

System: T-47D breast
Assay: growth of human tumour cells (NCI), 48 h

Row | SMILES | TGI
9 | O=C(/C=C/c1ccccc1)C[C@@H](O)C[C@@H]1CC=CC(=O)O1 | 42.2 µM
10 | NC1(c2cc3ccccc3s2)CCCC1 | > 100 µM
11 | Cc1ccc(-c2csc(=Nc3ccccc3)n2NC(=O)c2ccncc2)cc1 | 58.7 µM

System: TK-10 renal
Assay: growth of human tumour cells (NCI), 48 h

Row | SMILES | TGI
12 | O=C(/C=C/c1ccccc1)C[C@@H](O)C[C@@H]1CC=CC(=O)O1 | 28.9 µM
13 | Cc1ccc(/C=C/C(=O)c2cccc3ccccc23)cc1 | 28.5 µM
14 | N#C/C(=C1/Sc2c(nc[nH]c2=O)N1c1ccccc1)c1nc2ccccc2[nH]1 | > 100 µM
15 | C=CC[C@H](C[C@H](C[C@H](C[C@H](C[C@H](C[C@H](C[C@H](C[C@H](C[C@H](C[C@H](CCCCC)OC)OC)OC)OC)OC)OC)OC)OC)OC)OC | > 100 µM
16 | NC1(c2cc3ccccc3s2)CCCC1 | 85.7 µM
17 | C/C(CCn1[nH]c(=O)ccc1=O)=N\NC(=O)C(=O)NN | > 100 µM
18 | Cc1ccc(-c2csc(=Nc3ccccc3)n2NC(=O)c2ccncc2)cc1 | > 100 µM

System: U251 CNS
Assay: growth of human tumour cells (NCI), 48 h

Row | SMILES | TGI
19 | O=C(/C=C/c1ccccc1)C[C@@H](O)C[C@@H]1CC=CC(=O)O1 | 21.7 µM
20 | Cc1ccc(/C=C/C(=O)c2cccc3ccccc23)cc1 | 25.6 µM
21 | N#C/C(=C1/Sc2c(nc[nH]c2=O)N1c1ccccc1)c1nc2ccccc2[nH]1 | > 100 µM
22 | C=CC[C@H](C[C@H](C[C@H](C[C@H](C[C@H](C[C@H](C[C@H](C[C@H](C[C@H](C[C@H](CCCCC)OC)OC)OC)OC)OC)OC)OC)OC)OC)OC | > 100 µM
23 | NC1(c2cc3ccccc3s2)CCCC1 | > 100 µM
24 | Cc1ccc(-c2csc(=Nc3ccccc3)n2NC(=O)c2ccncc2)cc1 | > 31.6 µM

System: UACC-257 melanoma
Assay: growth of human tumour cells (NCI), 48 h

Row | SMILES | TGI
25 | O=C(/C=C/c1ccccc1)C[C@@H](O)C[C@@H]1CC=CC(=O)O1 | 31.1 µM
26 | Cc1ccc(/C=C/C(=O)c2cccc3ccccc23)cc1 | 33.7 µM
27 | N#C/C(=C1/Sc2c(nc[nH]c2=O)N1c1ccccc1)c1nc2ccccc2[nH]1 | > 100 µM
28 | C=CC[C@H](C[C@H](C[C@H](C[C@H](C[C@H](C[C@H](C[C@H](C[C@H](C[C@H](C[C@H](CCCCC)OC)OC)OC)OC)OC)OC)OC)OC)OC)OC | > 100 µM
29 | NC1(c2cc3ccccc3s2)CCCC1 | 81.2 µM
30 | C/C(CCn1[nH]c(=O)ccc1=O)=N\NC(=O)C(=O)NN | > 100 µM
31 | Cc1ccc(-c2csc(=Nc3ccccc3)n2NC(=O)c2ccncc2)cc1 | > 100 µM

System: UACC-62 melanoma
Assay: growth of human tumour cells (NCI), 48 h

Row | SMILES | TGI
32 | O=C(/C=C/c1ccccc1)C[C@@H](O)C[C@@H]1CC=CC(=O)O1 | 14.5 µM
33 | Cc1ccc(/C=C/C(=O)c2cccc3ccccc23)cc1 | 33.7 µM
34 | N#C/C(=C1/Sc2c(nc[nH]c2=O)N1c1ccccc1)c1nc2ccccc2[nH]1 | > 100 µM
35 | C=CC[C@H](C[C@H](C[C@H](C[C@H](C[C@H](C[C@H](C[C@H](C[C@H](C[C@H](C[C@H](CCCCC)OC)OC)OC)OC)OC)OC)OC)OC)OC)OC | > 100 µM
36 | NC1(c2cc3ccccc3s2)CCCC1 | > 100 µM
37 | C/C(CCn1[nH]c(=O)ccc1=O)=N\NC(=O)C(=O)NN | > 100 µM
38 | Cc1ccc(-c2csc(=Nc3ccccc3)n2NC(=O)c2ccncc2)cc1 | 70.6 µM

System: UO-31 renal
Assay: growth of human tumour cells (NCI), 48 h

Row | SMILES | TGI
39 | O=C(/C=C/c1ccccc1)C[C@@H](O)C[C@@H]1CC=CC(=O)O1 | 28.9 µM
40 | Cc1ccc(/C=C/C(=O)c2cccc3ccccc23)cc1 | 39.7 µM
41 | N#C/C(=C1/Sc2c(nc[nH]c2=O)N1c1ccccc1)c1nc2ccccc2[nH]1 | > 100 µM
42 | C=CC[C@H](C[C@H](C[C@H](C[C@H](C[C@H](C[C@H](C[C@H](C[C@H](C[C@H](C[C@H](CCCCC)OC)OC)OC)OC)OC)OC)OC)OC)OC)OC | > 100 µM
43 | NC1(c2cc3ccccc3s2)CCCC1 | > 100 µM
44 | C/C(CCn1[nH]c(=O)ccc1=O)=N\NC(=O)C(=O)NN | > 100 µM
45 | Cc1ccc(-c2csc(=Nc3ccccc3)n2NC(=O)c2ccncc2)cc1 | > 100 µM

System: XF 498 CNS
Assay: growth of human tumour cells (NCI), 48 h

Row | SMILES | TGI
46 | Cc1ccc(/C=C/C(=O)c2cccc3ccccc23)cc1 | 28.7 µM
47 | N#C/C(=C1/Sc2c(nc[nH]c2=O)N1c1ccccc1)c1nc2ccccc2[nH]1 | > 100 µM
48 | C=CC[C@H](C[C@H](C[C@H](C[C@H](C[C@H](C[C@H](C[C@H](C[C@H](C[C@H](C[C@H](CCCCC)OC)OC)OC)OC)OC)OC)OC)OC)OC)OC | > 100 µM
49 | C/C(CCn1[nH]c(=O)ccc1=O)=N\NC(=O)C(=O)NN | > 100 µM
